Reference: publication PMC4448209 (Journal of Neuroinflammation, 2015)
“Also recorded” adds a separate entry of the source.

How the values were obtained:
1C11 neuronal cells = test: IFNγ ELISPOT, restimulation with 1C11 neuronal cells; settings: inferred from 1C11 cells and APPPS1 CD11b^+ microglia
Protocol: Nitrocellulose-based 96-well plates (Millipore, Billerica, MA, USA) were coated with anti-mouse IFN-γ capture mAb (1 μg/ml; clone R4-6A2, BD Biosciences) and saturated with complete culture medium. Responder splenocytes from individual mice were seeded at 10^6 or 5 × 10^5 cells/wells and cultured with medium alone or containing 10 μg/ml of peptide. In some experiments, splenocytes were stimulated with CD11b^+ microglia (3 × 10^4/wells) isolated from the brain of WT or APPPS1 mice, or with mitomycin-treated 1C11 cells (2 × 10^4/wells), a neuronal cell line expressing both APP and H-2^b MHC-I but not MHC-II molecules [25, 26]. Plates were incubated at 37 °C in 5 % CO2 for 18 h, washed, and incubated with biotinylated anti-mouse IFNγ detection mAb (0.5 μ/ml; clone XMG1.2, BD Biosciences). Alkaline phosphatase conjugated to streptavidin (Roche, France) (1/500 dilution, 100 μL/well) was then added. IFNγ-secreting cells were visualized using TNB/BCIP substrate (Promega, Charbonnières, France), and spots were counted using an automatic ELISPOT plate reader. Samples were assayed in triplicate, and the frequency of peptide-specific T cells was calculated after subtracting the mean number of spots obtained in the absence of peptide or cells.

[1] = test system: IFNγ-secreting splenocytes; test: IFNγ ELISPOT, splenocytes of immunized C57BL/6 mice; format: in vivo, mouse
AD patients [2] = settings: phase 3 studies released summer 2012; 10 (bapineuzumab), 11 (solanezumab); cited from earlier work
[3] = Hydrophobicity and solubility remark from peptide synthesis; format: physicochemical; settings: likely reason why the 15-mer could not be productively synthetized
Aβ-specific antibodies [4] = test: Anti-Aβ antibody ELISA, C57BL/6 mice; format: in vivo, mouse
Protocol: (§1) To measure serum anti-Aβ antibody titers in immunized mice, flat-bottom Nunc MaxiSorp ELISA plates were coated overnight at 4 °C with Aβ1-42 peptide (1 μg/ml in 0.1 M NaHCO3, pH 8.3). Plates were then washed twice with PBS-T and blocked with PBS-1 % BSA for 2 h at room temperature (RT). After two washes, plates were incubated for 2 h at RT with serum samples at various dilutions in blocking buffer. The Aβ1-17-specific mAb 6E10 (0.01 and 1 μg/ml) (Sigma-Aldrich, St Quentin Fallavier, France) was used as a positive internal reference sample. […] Results were expressed as relative OD = Experimental OD/Reference OD for 6E10 mAb in the same plate.

Aβ-specific antibodies [5] = test: Anti-Aβ antibody ELISA, HLA-A2.1/HLA-DR1 mice; format: in vivo, mouse; settings: Aβ1-42-coated plates, relative OD
Protocol: as §1

[6] = test system: IFNγ-secreting splenocytes; settings: HLA-A2.1/HLA-DR1 mice, Aβ/CpG/IFA; dendritic cells loaded with Aβ or overlapping nonamer peptides; data not shown
animal models of AD = settings: vaccination; cited from earlier work
From the text: (§2) Alzheimer’s disease (AD) is a severe neurodegenerative disorder characterized by progressive loss of memory and cognitive functions. Accumulation of amyloid-β peptide (Aβ), both as soluble oligomers and in the form of amyloid plaques, plays a key role in initiating the pathogenic cascade in AD. […] In line with ...

AD patients [7] = settings: cited from earlier work
From the text: as §2

Question: Which “natural processing and presentation by microglia and neuronal cells” value (1C11 neuronal cells) does the source give for “GLMVGGVVI [Aβ33-41, Aβ-derived H-2-D^b-restricted nonamer]” here?
Answer: can be naturally processed and presented in both microglia and neuronal cells; also recorded: appears to be naturally processed and presented to immune effectors

Question: And the “restimulation of Aβ33-41NP-specific CD8^+ T cells by exogenously loaded native peptide” value [1]?
Answer: could not restimulate Aβ33-41NP-specific CD8^+ T cells when loaded exogenously

Question: With “solanezumab: humanized anti-Aβ monoclonal antibody” as the substance, how does the “improvement of cognitive performance” value (AD patients [2]) read?
Answer: inefficient at improving cognitive performance

Question: For “Aβ28-42: 15-mer candidate peptide, could not be productively synthetized (KGAIIGLMVGGVVIA; Amyloid-beta protein 42; UniProt P05067 699-713, looked up, fragment)”, which hydrophobicity [3] is on record?
Answer: very high hydrophobicity

Question: And the solubility [3]?
Answer: poor solubility

Question: What does the source list for Aβ1-42: Human Aβ1-42 peptide?
Answer: anti-Aβ antibody isotypes (Aβ-specific antibodies [4]): predominantly of IgG1 and IgG2b isotypes; Aβ-specific antibodies in serum (Aβ-specific antibodies [5]): Aβ-specific antibodies were detected; CD8^+ T cell response [6]: did not trigger any CD8^+ T cells able to recognize dendritic cells loaded with either Aβ or overlapping nonamer peptides; benefit in animal models of AD (animal models of AD): of benefit in animal models of AD; beneficial effects in AD patients (AD patients [7]; AN1792): modest beneficial effects; patients developing meningoencephalitis (AD patients [7]; human, in vivo): 6%
